Values quoted from earlier work in US8097259B2, “Method for prevention and treatment of Alzheimer's disease” (SunWay Biotech Co., Ltd., priority 2007, dated 2012).

System: Alzheimer's disease
Details: Wolozin et al. 2000

CC[C@H](C)C(=O)O[C@H]1C[C@@H](C)C=C2C=C[C@H](C)[C@H](CC[C@@H]3C[C@@H](O)CC(=O)O3)[C@H]21 [lovastatin]
results for AD treatment among statins: best results
